Consider six compounds from patent US20100069382A1, “Agent for prophylaxis or treatment of alcohol dependence or drug dependence” (priority 2006, published 2010).

Molecules are shown by their SMILES. Where two headings read alike, the source gives them in different places.

The conditions of data set [1]: existing medicines, known profile, cited from earlier work.
In a further data set the test system is Wistar rats. Briefly: Effect on alcohol withdrawal symptoms in Wistar rats. In kind it is in vivo, rat. On the procedure: Male Wistar rats were used in this study. According to the protocol shown in FIG. 1, rats were orally given 12-15 g/kg/body weight of ethanol in 24 hours on day 1 to day 2 and 9-10 g/kg/body weight of ethanol in 12 hours on day 3 to day 5. Compound A was administered p.o. at doses of 0.3 and 1 mg/kg/body weight twice after 2 and 7 hours of last ethanol administration. Four types of alcohol withdrawal symptoms such as vocalization, ventromedial limb retraction, tail rigidity, tail tremors were observed and scored with following 3 rating scales: mild=0, moderate=1, severe=2.

For data set [2], the system named is msP rats. The data set is described as follows: Effect on alcohol intake in msP rats. In kind it is in vivo, rat. The procedure:
Male genetically selected alcohol-preferring rats known as Marchigian Sardinian alcohol-preferring (msP) rats were used in this study (Addiction Biol. 11, 339-355, 2006). […] Compound A at doses of 0.3 and 1 mg/kg/body weight was orally administered twice for 9 days at 1 hour before and 8 hours after onset of dark period.

The test system of data set [3] is msP rats. The data set is described as follows: Yohimbine-induced reinstatement of alcohol-seeking behavior in msP rats. In kind it is in vivo, rat. The source says: Male genetically selected alcohol-preferring rats known as msP rats were used in this study (Addiction Biol. 11, 339-355, 2006). […] After acquisition of a stable baseline of 10% ethanol self-administration, rats were subjected to 30-min extinction sessions for 15 consecutive days. Extinction sessions were identical to 10% ethanol self-administration sessions, however alcohol was no longer available. Beginning on extinction day 10, rats were divided into three groups with similar baseline levels of responding for 10% ethanol. For six consecutive days, 1 hour before the self-administration session and 8 hours later, each group of rats were orally given vehicle, 0.3 mg/kg of Compound A or 1.0 mg/kg of Compound A. After the extinction sessions, rats were given yohimbine (1,25 mg/kg, i.p.) 35 min before the test sessions. The 30-min reinstatement test was conducted under extinction condition.
Yohimbine was used as stressor for this study, because yohimbine is known to produce stress and anxiety-like states in both humans and non-humans (Bremner et al, 1996; Charney et al 1983; Holmberg et al 1963).

Data set [4] deals with msP rats. Briefly: Study on dependence elicitation (conditioned place preference) in msP rats. The format is in vivo, rat. The procedure:
A two-compartment box divided by guillotine door was used. […] For the following 6 days, the rats were treated on alternate days with three Compound A-pairing administrations (0.3 and 1.0 mg/kg/body weight, p.o.) and three vehicle-pairing administrations immediately before being placed, for 1 hour, into the assigned chamber with guillotine door close for drug-compartment discrimination (conditioning). The day after the last conditioning session, the rats were placed, for 15 min, in the box with door open. The time spent in the drug paired compartment was measured.

The conditions of data set [5]: Economidou et al., Peptides 27, 3299-3306, 2006, cited from earlier work.
Setting [6] is: 0.3 and 1 mg/kg/body weight p.o. twice, 2 and 7 hours after last ethanol, observed 8 to 24 hours after last ethanol administration, FIG. 2.

Consider `CC(=O)NCCCS(=O)(=O)O` [Acamprosate], for which, in data set [1], the “Ameliorative effect on alcohol withdrawal symptoms” value (“Ameliorative effect” below) is on record as “none”, the Presence/absence of dependence entry was “absent”, the “Suppressive effect on excessive alcohol intake” value was “yes” and the “Suppressive effect on stress-induced reinstatement” value is reported as “none”. Moreover, in data set [1] (listed as acamprosate), the “Ameliorative effect” value is on record as “ineffective”, the “Suppressive effect on excessive alcohol intake” value is “effective” and the “Suppressive effect on stress-induced reinstatement” value is on record as “ineffective”.
On to `Clc1cccc(Cl)c1N=C1NCCN1` [Clonidine], for which, in data set [1], the “Ameliorative effect” value is “yes”, the Presence/absence of dependence result is recorded as “absent”, the “Suppressive effect on excessive alcohol intake” value is reported as “none” and the “Suppressive effect on stress-induced reinstatement” value is listed as “none”. In addition, in data set [1] (listed as clonidine), the “Ameliorative effect” value was “effective”, the “Suppressive effect on excessive alcohol intake” value was “ineffective” and the “Suppressive effect on stress-induced reinstatement” value is recorded as “ineffective”.
In the case of `CNC(=O)Cn1c(=O)n(C2CCN([C@@H]3Cc4cccc5cccc3c45)CC2)c2ccccc21` [Compound A, (R)-2-{3-[1-(acenaphthen-1-yl)piperidin-4-yl]-2,3-dihydro-2-oxo-benzimidazol-1-yl}-N-methylacetamide], in the data set with Wistar rats (setting [6]), the “score of tail rigidity (alcohol withdrawal symptom)” value is “significantly and dose-dependently decreased”; the “score of tail tremors (alcohol withdrawal symptom)” value is “significantly and dose-dependently decreased”; the “score of ventromedial limb retraction (alcohol withdrawal symptom)” value was “significantly and dose-dependently decreased”. In addition, the “Ameliorative effect” value with Wistar rats (Table 1 summary, Compound A) was “yes”. Moreover, in the data set on msP rats [2] (0.3 and 1 mg/kg/body weight orally twice daily for 9 days, free choice water / 10% ethanol, FIG. 4), the ethanol consumption result is “significantly and dose-dependently decreased”. In addition, the “Suppressive effect on excessive alcohol intake” value with msP rats [2] (Table 1 summary, Compound A) is on record as “yes”. Besides, in the data set with msP rats [2] (after 9 days of oral dosing at 0.3 and 1 mg/kg/body weight, FIG. 4), the “duration of significant decrease of ethanol consumption after withdrawal of Compound A” value is recorded as 9 days. In addition, in the data set with msP rats [3] (1 mg/kg orally twice daily for six days, yohimbine 1,25 mg/kg i.p., FIG. 6), the “yohimbine stress-induced reinstatement of alcohol-seeking behavior” value is reported as “significantly attenuated”. The “Suppressive effect on stress-induced reinstatement” value with msP rats [3] (Table 1 summary, Compound A) is recorded as “yes”. Moreover, the “place preference (time spent in drug paired compartment)” value in the data set on msP rats [4] (0.3 and 1.0 mg/kg/body weight p.o., three pairings, FIG. 8) is recorded as “induced place preference at neither 0.3 nor 1 mg/kg/body weight”. The Presence/absence of dependence result in the data set on msP rats [4] (Table 1 summary, Compound A) is “absent”. In addition, the “dependence elicitation by the compound itself” value in the data set on msP rats [4] (conclusion from conditioned place preference at 0.3 and 1 mg/kg/body weight) is “does not elicit dependence”.
With `CN1C(=O)CN=C(c2ccccc2)c2cc(Cl)ccc21` [Diazepam], in data set [1], the “Ameliorative effect” value is recorded as “yes”, the Presence/absence of dependence result was “present”, the “Suppressive effect on excessive alcohol intake” value was “none” and the “Suppressive effect on stress-induced reinstatement” value is given as “none”. For the same compound, the Presence/absence of dependence result in data set [1] (listed as diazepam) is “induce dependence”.
In the case of `O=C1CC[C@@]2(O)[C@H]3Cc4ccc(O)c5c4[C@@]2(CCN3CC2CC2)[C@H]1O5` [Naltrexone], in data set [1], the “Ameliorative effect” value is “none”, the Presence/absence of dependence entry was “absent”, the “Suppressive effect on excessive alcohol intake” value was “yes” and the “Suppressive effect on stress-induced reinstatement” value is given as “none”. Also, in data set [1] (listed as naltrexone), the “Ameliorative effect” value is listed as “ineffective”, the “Suppressive effect on excessive alcohol intake” value is on record as “effective” and the “Suppressive effect on stress-induced reinstatement” value is reported as “ineffective”.
Take `O=C1NCN(c2ccccc2)C12CCN([C@@H]1CC[C@H]3CCCc4cccc1c43)CC2` [Ro64-6198]: the alcohol drinking result in data set [5] is reported as “failed to decrease alcohol drinking”. Further, the “alcohol drinking at high dose” value in data set [5] (high dose) is listed as “increase”.
